# Results taken from patent publication US7160733B2, “Ligand specific to β2-glycoprotein I and use thereof” (priority 2001, dated 2007).
# Columns and labels:
# [1] = test system: APS-2; assay: ELISA on solid-phase lipid-coated plate: binding of antibodies of APS patient serum APS-2; set-up: species or system human; conditions: Experiment 1; Absorbance, mean ± SD, n = 3; solid-phase lipid, β2-GPI 15 μg/mL; serum with β2-GPI removed
# Method: (§1) To eliminate endogenous β2-GPI in some experiments, serum samples were passed through a heparin-Sepharose column. The effluent was dialyzed against PBS and was used for ELISAs.
# (§2) Synthesized oxLig-1 (50 μg/mL, 50 μL/well) was adsorbed by evaporation on a polystyrene plate (Immulon 1B; Dynex Technologies Inc.), and the plate was then blocked with 1% BSA. Serum samples (diluted 1:100 with PBS containing 0.3% BSA) were incubated in the wells with β2-GPI (15 μg/mL) or other proteins for one hour at room temperature. Antibody binding was detected with HRP-labeled anti-human IgG. Further steps were performed through a method as described in “anti-β2-GPI ELISA.”
# (§3) CL (50 μg/mL, 50 μL/well) was adsorbed on a polystyrene plate (Immulon 1B), and further steps were performed through a method as described in “ELISA for antibodies against a protein-oxLig-1 complex.”
# [2] = biological target: T1, β2-GPI (Homo sapiens, UniProt P02749); assay: ELISA on solid-phase lipid (ligand)-coated plate: β2-GPI binding detected with Cof-22
# T1 construct: β2-GPI was purified from normal human plasma as described in [35] with slight modification; from tissue; host or cells: pooled normal human plasma from healthy subjects
# T1 sequence (P02749 20-345): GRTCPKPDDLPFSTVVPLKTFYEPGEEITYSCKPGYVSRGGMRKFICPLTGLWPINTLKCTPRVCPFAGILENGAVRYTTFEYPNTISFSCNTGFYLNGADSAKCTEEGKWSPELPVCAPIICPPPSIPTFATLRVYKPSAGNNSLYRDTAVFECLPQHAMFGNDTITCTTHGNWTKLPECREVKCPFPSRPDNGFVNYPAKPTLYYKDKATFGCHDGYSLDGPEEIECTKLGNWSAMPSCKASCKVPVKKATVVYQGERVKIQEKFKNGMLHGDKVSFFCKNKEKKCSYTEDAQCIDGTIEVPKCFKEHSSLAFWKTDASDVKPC
# Method: (§4) Binding to extracted lipids: A microtiter plate (Immulon 1B, Dynex Technologies Inc.) was coated with lipids extracted from LDLs (50 μg/mL, 50 μL/well) by ethanol evaporation. The wells were blocked with PBS containing 1% BSA for one hour and the wells were incubated with 30 μg/mL of β2-GPI for one hour. Then, β2-GPI binding was detected using Cof-22 and HRP-labeled anti-mouse IgG antibodies. Alternatively, an anti-β2-GPI autoantibody (Cof-22, WB-CAL-1, or EY2C9) was diluted with a 0.3% BSA-containing PBS, and the diluted antibody was added to the coated plate (1.0 μg/mL, 100 μL/well) and incubated with β2-GPI (15 μg/mL) for one hour. The binding of the antibody was detected by an HRP-labeled anti-mouse IgG /or an anti-human IgM. The color was developed with H2O2 and o-phenylenediamine, and OD was measured at 490 nm. Between these steps, extensive washing were done using PBS containing 0.05% Tween 20.
# as §2, §3
# [3] = test system: WB-CAL-1; assay: ELISA on solid-phase lipid (ligand)-coated plate: WB-CAL-1 binding in presence of β2-GPI; set-up: species or system mouse
# Method: as §4, §2, §3
# [4] = test system: APS-1; assay: ELISA on solid-phase lipid-coated plate: binding of antibodies of APS patient serum APS-1; set-up: species or system human; conditions: Experiment 1; Absorbance, mean ± SD, n = 3; solid-phase lipid, β2-GPI 15 μg/mL; serum with β2-GPI removed
# Method: as §1, §2, §3
# [5] = test system: anti-β2-GPI antibodies; assay: ELISA of the anti-β2-GPI antibodies by use of a ligand-coated plate (results in words); format: binding; conditions: result in words
# Method: as §4, §2
# [6] = test system: EY2C9; assay: ELISA on solid-phase lipid (ligand)-coated plate: EY2C9 binding in presence of β2-GPI; set-up: species or system human
# Method: as §4, §2, §3
# [7] = biological target: T2, β2-GPI and anti-β2-GPI antibodies (Cof-22, WB-CAL-1, EY2C9) (Homo sapiens, UniProt P02749); assay: TLC ligand blot with β2-GPI and anti-β2-GPI antibodies; format: binding; conditions: result in words
# T2 construct: β2-GPI was purified from normal human plasma as described in [35] with slight modification; from tissue; host or cells: β2-GPI from pooled normal human plasma
# T2 sequence (P02749 20-345): T1 sequence (P02749 20-345)
# Source text: Extracted lipids were spotted on a Polygram silica gel plate (product of Machery-Nagel) and developed in chloroform/methanol/30% ammonia/water (120:80:10:5, v/v/v/v, hereinafter referred to as solvent A). The plate was stained with I2 vapor, or with a spray of molybdenum blue, of 2N sulfuric acid containing 2% orcin, or of glacial acetic acid/sulfuric acid (19:1, v/v) (Lieberman-Burchard reaction). Alternatively, the developed plate was subjected to ligand blot with β2-GPI and an anti-β2-GPI antibody. TLC plates were blocked with PBS containing 1% bovine serum albumin (BSA) and were subsequently incubated with β2-GPI, anti-β2-GPI antibodies (Cof-22, WB-CAL-1, or EY2C9), and HRP-labeled anti-mouse IgG antibodies or anti-human IgM antibodies for one hour. In each step, plates were extensively washed with PBS. The color was developed with H2O2 and 4-methoxy-1-naphtol (product of Aldrich). The ligand-enriched bands scraped from the TLC plate were subjected to another TLC in chloroform/methanol (8:1, v/v) (hereinafter referred to as solvent B). […]
# A fraction rich in a ligand (originating from oxLDL) obtained by two-step TLC was analyzed by reversed phase HPLC on a Sephasil Peptide C-18 5-μm column (4.6 mm×250 mm; product of Amersham-Pharmacia Biotech). […]
# [8] = Experiment 1, Absorbance, mean ± SD, n = 3, solid-phase lipid, β2-GPI 15 μg/mL
# [9] = absorbance at 490 nm, mean ± SD (n = 3), solid-phase ligand not methylated
smiles,measurement,setting,value
"CC(C)CCC[C@@H](C)[C@H]1CC[C@H]2[C@@H]3C(=O)C=C4C[C@@H](OC(=O)CCCCCCCC(=O)O)CC[C@]4(C)[C@H]3CC[C@]12C [oxLig-1, 9-oxo-9-(7-ketocholest-5-en-3β-yloxy)nonanoic acid]","Binding of β2-GPI-dependent aCL, APS-2",[1],1.222 ± 0.057
same,"Binding of β2-GPI-dependent aCL, Cof-22",[2]; [8],1.066 ± 0.114
same,"β2-GPI binding (Cof-22 binding), No treatment",[2]; [9],1.307 +/− 0.105
same,β2-GPI binding to lipid,[2]; result in words (discussion),significant bonding
same,"Binding of β2-GPI-dependent aCL, WB-CAL-1",[3]; [8],1.035 ± 0.062
same,"WB-CAL-1 binding, No treatment",[3]; [9],0.945 +/− 0.068
same,"Binding of β2-GPI-dependent aCL, APS-1",[4],1.130 ± 0.177
same,binding of the anti-β2-GPI autoantibodies (WB-CAL-1 and EY2C9) to solid-phase ligand,[5]; ligand-coated plate,significant binding
same,cross-reaction of autoantibodies derived from APS with β2-GPI complexed with lipid,[5],cross-reacted
same,"Binding of β2-GPI-dependent aCL, EY2C9",[6]; [8],0.915 ± 0.072
same,"EY2C9 binding, No treatment",[6]; [9],1.458 +/− 0.062
same,ligand blot: interaction of β2-GPI and anti-β2-GPI antibodies with ligand,[7],positively stained
same,ligand blot: interaction of β2-GPI and anti-β2-GPI antibodies with ligand,[7]; listed as Synthesized oxLig-1,same Rf position and binding characteristics
